pEC50: −log10 of the molar value.
What was measured:
Rattus norvegicus [1] = test: Analgesic activity in SNL nerve injury in iv dosed rat model; type: functional; settings: for minimal effective dose: Rattus norvegicus, iv, read-out: MED
Rattus norvegicus [2] = species on record: Rattus norvegicus; test: Analgesic activity in streptozotocin-induced diabetic rat model of pain; type: functional; settings: read-out: MED
Rattus norvegicus [3] = test: Analgesic activity in carrageenan model in po dosed rat model; type: functional; settings: read-out: MED
Rattus norvegicus [4] = test: Analgesic activity in SNL nerve injury in po dosed rat model; type: functional
Rattus norvegicus [5] = test: Analgesic activity in formalin-induced pain hypersensitivity in po dosed rat; type: functional
Rattus norvegicus [6] = test: Analgesic activity in CCI and SNL nerve injury in po dosed rat model of pain; type: functional; settings: read-out: MED
[7] = Activity at Kv.7 channel expressed in cloned CHO cells by patch clamp method; type: cell-based
[8] = biological target: Potassium voltage-gated channel subfamily KQT member 2 (Homo sapiens, UniProt O43526); test: Activity at Kv 7.2 channel expressed in cloned CHO cells by [86Rb] efflux assay; type: cell-based
Sequence of Potassium voltage-gated channel subfamily KQT member 2 (O43526 whole entry): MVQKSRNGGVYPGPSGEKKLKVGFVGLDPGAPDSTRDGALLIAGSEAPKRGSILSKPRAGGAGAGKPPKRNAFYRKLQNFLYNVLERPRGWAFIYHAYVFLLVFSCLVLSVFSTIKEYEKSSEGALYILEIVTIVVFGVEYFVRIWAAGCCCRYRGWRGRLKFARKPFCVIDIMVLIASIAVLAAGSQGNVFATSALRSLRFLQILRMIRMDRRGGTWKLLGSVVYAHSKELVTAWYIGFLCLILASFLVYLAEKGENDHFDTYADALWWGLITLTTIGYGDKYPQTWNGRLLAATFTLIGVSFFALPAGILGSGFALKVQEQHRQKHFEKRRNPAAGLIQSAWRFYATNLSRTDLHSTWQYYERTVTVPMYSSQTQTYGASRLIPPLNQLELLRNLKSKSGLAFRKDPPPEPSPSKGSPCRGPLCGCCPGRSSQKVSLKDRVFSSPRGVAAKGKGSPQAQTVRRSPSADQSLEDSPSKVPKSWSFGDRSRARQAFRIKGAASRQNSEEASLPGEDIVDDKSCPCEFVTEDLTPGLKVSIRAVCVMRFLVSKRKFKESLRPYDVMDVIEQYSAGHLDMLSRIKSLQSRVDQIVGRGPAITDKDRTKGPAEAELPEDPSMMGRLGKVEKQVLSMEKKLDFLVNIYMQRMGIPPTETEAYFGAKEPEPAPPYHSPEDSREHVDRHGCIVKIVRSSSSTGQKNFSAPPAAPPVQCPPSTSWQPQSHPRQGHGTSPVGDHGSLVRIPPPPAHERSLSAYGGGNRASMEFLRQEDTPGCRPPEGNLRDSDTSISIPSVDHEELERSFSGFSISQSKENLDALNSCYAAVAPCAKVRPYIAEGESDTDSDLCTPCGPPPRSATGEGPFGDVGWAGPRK

Rattus norvegicus [9] = species on record: Rattus norvegicus; test: Toxicity in rat by rotarod test; type: organism-based; settings: in vivo
[10] = Therapeutic index, ratio of ED50 in rotor rod test in rat to ED50 in rat kindling model of epileptic seizures; settings: read-out: TI
[11] = Therapeutic index, ratio of ED50 in rotor rod test in rat to ED50 in rat spinal nerve ligation model of neuropathic pain; type: organism-based; settings: in vivo, read-out: TI
Rattus norvegicus [12] = test: Analgesic activity in formalin-induced pain hypersensitivity in ip dosed rat; type: functional

With `C[C@H](NC(=O)/C=C/c1ccccc1F)c1cccc(Oc2cccnc2)c1` the minimal effective dose (Rattus norvegicus [1]) was 10 mg/kg.

For `C[C@H](NC(=O)/C=C/c1ccc(F)cc1)c1ccc(F)c(N2CCOCC2)c1`, the minimal effective dose (Rattus norvegicus [1]) was 10 mg/kg and the minimal effective dose (Rattus norvegicus [2]) was 10 mg/kg.

Compound `O=C(Nc1ccc(Cl)nc1)c1ccc(F)c(F)c1` has a minimal effective dose (Rattus norvegicus [3]) of 30 mg/kg and an ED50 (Rattus norvegicus [4]) of 25 mg/kg.

Work on `C[C@H](NC(=O)/C=C/c1ccccc1F)c1cccc(-n2cccn2)c1` yielded a minimal effective dose (Rattus norvegicus [1]) of 10 mg/kg.

In the case of `CCOC(=O)Nc1ccc(NCc2ccc(F)cc2)cc1N` [EZOGABINE], the ED50 (Rattus norvegicus [5]) was 47.6 mg/kg, the minimal effective dose (Rattus norvegicus [6]) was 10 mg/kg and the pEC50 [7] was 6.00. The pEC50 [8] was greater than 6.82, the ED50 (Rattus norvegicus [9]) was 40 mg/kg and the selectivity ratio [10] was 4. The selectivity ratio [11] was 1.6 and the ED50 (Rattus norvegicus [12]) was 6.6 mg/kg.

Work on `CC(NC(=O)c1sc(-c2ccccc2F)nc1C(F)(F)F)c1cccc(-c2cccc(OC(F)(F)F)c2)c1` (stereo unspecified) yielded an MED (Rattus norvegicus [1]) of 10 mg/kg and a minimal effective dose (Rattus norvegicus [1]) of 10 mg/kg.

Source: ChEMBL document CHEMBL1141459, “Kv7 (KCNQ) channel modulators and neuropathic pain” (J Med Chem, 2007)
